This is an account of results in patent publication US20060063143A1, “Immortalized hypothalamic neuronal cell lines” (priority 2002, published 2006).

The test system of the test is immortalized hypothalamic subclones N-7, N-22, N-29. Kind of test: Functional cAMP response of immortalized subclones to peptide stimulation (RIA). Format: cell-based, mouse. The conditions noted are these: cell lines N-7, N-22 and N-29; 10^-7 M (100 nM) peptide, 15 minutes, IBMX 100 μM. The text has this:
The onset of mood disorders, such as depression or anxiety, involve the altered function of multiple loci in the brain that regulate emotionality, memory and motivation (41-43). However, the inability to describe a cellular and molecular aetiology of these conditions likely reflects, in part, the existence of critical neurological circuits not yet understood. A novel family of neuropeptides on the carboxy-terminus of the teneurin transmembrane proteins (32, 44) is implicated in neuronal communication. In one embodiment, they modulate stress responses and anxiety (data not shown) and likely play a role in some psychiatric illnesses. In another embodiment, they are implicated as modulators of cell cycle and cell proliferation. These sequences are called teneurin C-terminal-associated peptides (TCAP-1 to 4) [SEQ. ID NOs 1-9]. These peptides may also have a cleavable amidation signal at the C-terminus, such as “GRR” or “GKR”. […]
The functional cAMP response of the immortalized subclones to TCAP peptide stimulation was also assessed and the results are shown in FIG. 18. […] N-7, N-22 and N-29 were analyzed for the cAMP response to peptide stimulation. […] Cells were scraped from the plate and kept at −20° C. until the amounts of intracellular cAMP were determined in triplicate by RIA (Biotechnologies Inc., Stoughton, Mass.) according to the manufacturer's instructions.

Regarding “rtTCAP-3: teneurin C-terminal-associated peptide, rainbow trout TCAP-3, SEQ ID NO 9 plus amidation signal GKR; stress-regulating peptide provided by Dr. D. Lovejoy (QLLSGRKVLGYDGYYVLSIEQYPELADSANNIQFLRQSEI; C-terminal GKR amidation signal; Trout TCAP3)”, the “TCAP responsiveness of cell lines (cAMP response)” value is on record as “responsive”.
